From patent US9751878B2, “Tetrahydronaphthyridine somatostatin receptor 5 antagonists” (Takeda Pharmaceutical Company Limited, priority 2013, dated 2017)

Key:
human SSTR5 = molecular target: T1, human SSTR5 (Homo sapiens, UniProt P35346); experiment: Evaluation of human SSTR5 antagonist activity using intracellular cAMP concentration as index; format: cell-based; settings: 1 μM test compound; CHO (dhfr-) cells stably expressing human SSTR5; 0.1 nM somatostatin 28, 0.3 μM forskolin; cAMP HTRF; read-out: Inhibition rate against SSTR5 at 1 μM
T1 construct: expressed in transfected cells
T1 sequence (P35346 whole entry): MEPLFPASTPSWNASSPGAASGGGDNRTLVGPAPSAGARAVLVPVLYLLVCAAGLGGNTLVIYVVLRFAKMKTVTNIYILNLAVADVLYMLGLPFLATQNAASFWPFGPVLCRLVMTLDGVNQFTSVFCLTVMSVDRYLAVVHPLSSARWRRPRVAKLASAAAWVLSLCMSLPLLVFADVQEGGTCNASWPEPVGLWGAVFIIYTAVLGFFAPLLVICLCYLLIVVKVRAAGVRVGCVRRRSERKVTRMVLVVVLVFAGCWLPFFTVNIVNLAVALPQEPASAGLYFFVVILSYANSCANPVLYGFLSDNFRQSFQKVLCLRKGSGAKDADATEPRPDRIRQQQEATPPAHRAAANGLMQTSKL
Method: Evaluation of Human SSTR5 Antagonist Activity Using Intracellular cAMP Concentration as Index
The intracellular cAMP concentration was measured using HTRF cAMP dynamic 2 kit (Cisbio Bioassays). Each test compound diluted with an assay buffer (HBSS (Invitrogen Corp.) containing 5 mM HEPES (pH 7.5) (Invitrogen Corp.), 0.1% fatty-acid free BSA (Sigma-Aldrich Corp.), and 500 μM IBMX (Wako Pure Chemical Industries, Ltd.)) was added at a concentration of 2 μL/well to a 384-well white plate (Greiner Bio-One Co., Ltd.) to give the final concentration of 1 μM. A frozen stock of CHO (dhfr-) cells stably expressing the human SSTR5 gene (Accession No. NM_001053) was thawed in a thermostat bath of 37° C. and suspended in a subculture medium (MEM alpha (Wako Pure Chemical Industries, Ltd.), 10% dialyzed serum (Gemini Bio-Products), and 50 μg/mL gentamicin (Invitrogen Corp.). After centrifugation of the cell suspension, the cells were resuspended in an assay buffer and added at a concentration of 2 μL/well (about 4,000 cells/well) to the plate. The compound and the cells were incubated for 15 minutes, and then, an assay buffer containing 0.1 nM (final concentration) somatostatin 28 (Toray Research Center) and 0.3 μM (final concentration) forskolin (Wako Pure Chemical Industries, Ltd.) was added thereto at a concentration of 2 μL/well, followed by incubation at room temperature for 30 minutes. cAMP-d2 and anti-cAMP-cryptate were each added thereto at a concentration of 3 μL/well. The plate was left standing at room temperature for 60 minutes. Then, the fluorescence resonance energy transfer (FRET) intensity was measured using Multi-label reader Envision (PerkinElmer). The FRET intensity of the wells supplemented with the test compound group was converted to a cAMP concentration using a calibration curve prepared from the FRET intensity of a well group containing an assay buffer supplemented with an arbitrary concentration of cAMP. The inhibitory activity of each compound was calculated according to the following expression: Inhibitory activity (%)=(C−B)/(A−B)×100 A: cAMP concentration calculated from the wells supplemented with 0.3 μM forskolin B: cAMP concentration calculated from the wells supplemented with 0.3 μM forskolin and 0.1 nM somatostatin 28 C: cAMP concentration calculated from the wells supplemented with 0.3 μM forskolin, 0.1 nM somatostatin 28, and 1 μM test compound

[1] = tested on: high fat diet-fed male C57BL6J mice; experiment: Glucose tolerance test in mice (oral glucose tolerance test); format: in vivo; settings: 1 mg/kg oral, n=6
Method: Glucose Tolerance Test in Mice
Oral glucose tolerance test was performed in high fat diet-fed male C57BL6J mice (Clea Japan Inc.). 8 weeks old mice were fasted overnight and divided into separate groups (n=6) based on plasma glucose levels and body weight. Vehicle (0.5% (w/v) methylcellulose) or the compound of Example 72 (1 mg/kg) (suspended in vehicle) were orally given to animals and glucose was loaded (5 g/kg) 1 h after drug administration. Blood was collected from tail vein and blood glucose levels (mg/dL) were measured by ACCU-CHEK (Roche Inc.) at time 0 (just before glucose load), 10, 30, 60 and 120 min after glucose load.

[2] = tested on: Male KK-Ay/Ta mice, a type 2 diabetes model; experiment: Antidiabetic effect in mice (1); format: in vivo; settings: 10 mg/kg orally once a day for 2 weeks; n=8
Method: Antidiabetic Effect in Mice (1)
Male KK-Ay/Ta mice (Clea Japan Inc.), a type 2 diabetes model, were used in this study. At the age of 7-week old, blood samples were collected from tail vein at 8:00 am, and animals were divided into separate groups (n=8) based on glycated hemoglobin (GHb), plasma glucose, insulin, triglyceride levels and body weight. Vehicle (0.5% (w/v) methylcellulose) or the compound of Example 67 (10 mg/kg) (suspended in vehicle) were orally administered once a day for 2 weeks. After 2 weeks of treatment, GHb was determined by auto-analyzer HLC-723G8 (TOSOH, Japan).

| Structure (SMILES) | inhibition at 1 µM (human SSTR5) [%] | also measured |
| --- | --- | --- |
| CCc1nc2c(cc1C(=O)O)C(=O)N(C1CCN(Cc3cc(C4CC4)c(-c4ccc(F)cc4)c(F)c3OC(C)C)CC1)CC2 [Example 72, 6-(1-((6-Cyclopropyl-2,4′-difluoro-3-isopropoxybiphenyl-4-yl)methyl)piperidin-4-yl)-2-ethyl-5-oxo-5,6,7,8-tetrahydro-1,6-naphthyridine-3-carboxylic acid] | 97 | blood glucose levels, 10 min ([1]; 10 min after glucose load (5 g/kg)): 283 mg/dL; blood glucose levels, 30 min ([1]; 30 min after glucose load (5 g/kg)): 269 mg/dL; blood glucose levels, 60 min ([1]; 60 min after glucose load (5 g/kg)): 267 mg/dL; blood glucose levels, 120 min ([1]; 120 min after glucose load (5 g/kg)): 140 mg/dL; blood glucose levels, 0 min ([1]; time 0 (just before glucose load, 1 h after drug administration)): 123 mg/dL; AUCpre-120 min ([1]; blood glucose AUC, glucose load 5 g/kg): 463 mg·h/dL |
| CC(C)Oc1cc(-c2ccc(F)cc2)c(C2CC2)cc1CN1CCC(N2CCc3nc(C(C)C)c(C(=O)O)cc3C2=O)CC1 [Example 50, 6-(1-((2-Cyclopropyl-4′-fluoro-5-isopropoxybiphenyl-4-yl)methyl)piperidin-4-yl)-2-isopropyl-5-oxo-5,6,7,8-tetrahydro-1,6-naphthyridine-3-carboxylic acid] | 99 |  |
| CCCc1nc2c(cc1C(=O)O)C(=O)N(C1CCN(Cc3cc(OCC)c(-c4ccc(F)cc4)c(OCC)c3)CC1)CC2 [Example 38, 6-(1-((2,6-Diethoxy-4′-fluorobiphenyl-4-yl)methyl)piperidin-4-yl)-5-oxo-2-propyl-5,6,7,8-tetrahydro-1,6-naphthyridine-3-carboxylic acid] | 97 |  |
| CCCc1nc2c(cc1C(=O)O)C(=O)N(C1CCN(Cc3cc(C4CC4)c(C4CCC4)cc3OCC)CC1)CC2 [Example 52, 6-(1-(4-Cyclobutyl-5-cyclopropyl-2-ethoxybenzyl)piperidin-4-yl)-5-oxo-2-propyl-5,6,7,8-tetrahydro-1,6-naphthyridine-3-carboxylic acid] | 114 |  |
| CCOc1cc(CN2CCC(N3CCc4nc(C)c(C(=O)O)cc4C3=O)CC2)cc(C2CC2)c1-c1ccc(F)c(F)c1 [Example 8, 6-(1-((2-Cyclopropyl-6-ethoxy-3′,4′-difluorobiphenyl-4-yl)methyl)piperidin-4-yl)-2-methyl-5-oxo-5,6,7,8-tetrahydro-1,6-naphthyridine-3-carboxylic acid] | 97 |  |
| CCCc1nc2c(cc1C(=O)O)C(=O)N(C1CCN(Cc3cc(OC(C)C)c(-c4ccc(F)cc4)c(C4CC4)c3)CC1)CC2 [Example 63, 6-(1-((2-Cyclopropyl-4′-fluoro-6-isopropoxybiphenyl-4-yl)methyl)piperidin-4-yl)-5-oxo-2-propyl-5,6,7,8-tetrahydro-1,6-naphthyridine-3-carboxylic acid] | 97 |  |
| CCCc1nc2c(cc1C(=O)O)C(=O)N(C1CCN(Cc3cc(C4CC4)c(-c4ccc(F)cc4)c(F)c3OC)CC1)CC2 [Example 81, 6-(1-((6-Cyclopropyl-2,4′-difluoro-3-methoxybiphenyl-4-yl)methyl)piperidin-4-yl)-5-oxo-2-propyl-5,6,7,8-tetrahydro-1,6-naphthyridine-3-carboxylic acid] | 82 |  |
| CCCc1nc2c(cc1C(=O)O)C(=O)N(C1CCN(Cc3cc(C4CC4)c(-c4ccc(F)cc4)c(F)c3OCC)CC1)CC2 [Example 67, 6-(1-((6-Cyclopropyl-3-ethoxy-2,4′-difluorobiphenyl-4-yl)methyl)piperidin-4-yl)-5-oxo-2-propyl-5,6,7,8-tetrahydro-1,6-naphthyridine-3-carboxylic acid] |  | Average of delta GHb (%) [2]: 0.40% |
| Cc1nc2c(cc1C(=O)O)C(=O)N(C1CCN(Cc3cc(C4CC4)c(-c4ccc(F)cc4)nc3OC(C)C)CC1)CC2 [Example 6, 6-(1-((5-Cyclopropyl-6-(4-fluorophenyl)-2-isopropoxypyridin-3-yl)methyl)piperidin-4-yl)-2-methyl-5-oxo-5,6,7,8-tetrahydro-1,6-naphthyridine-3-carboxylic acid] | 88 |  |

Continued, in another order:

| inhibition at 1 µM (human SSTR5) [%] | Structure (SMILES) | also measured |
| --- | --- | --- |
| 91 | CCOc1cc(-c2ccc(F)cc2)c(C2CC2)cc1CN1CCC(N2CCc3nc(C(C)C)c(C(=O)O)cc3C2=O)CC1 [Example 49, 6-(1-((2-Cyclopropyl-5-ethoxy-4′-fluorobiphenyl-4-yl)methyl)piperidin-4-yl)-2-isopropyl-5-oxo-5,6,7,8-tetrahydro-1,6-naphthyridine-3-carboxylic acid] |  |
| 89 | CCCc1nc2c(cc1C(=O)O)C(=O)N(C1CCN(Cc3cc(OCC)c(-c4ccc(F)cc4F)c(C4CC4)c3)CC1)CC2 [Example 64, 6-(1-((2-Cyclopropyl-6-ethoxy-2′,4′-difluorobiphenyl-4-yl)methyl)piperidin-4-yl)-5-oxo-2-propyl-5,6,7,8-tetrahydro-1,6-naphthyridine-3-carboxylic acid] |  |
| 111 | CCc1nc2c(cc1C(=O)O)C(=O)N(C1CCN(Cc3cc(C4CC4)c(-c4ccc(F)cc4)cc3OC(C)C)CC1)CC2 [Example 44, 6-(1-((2-Cyclopropyl-4′-fluoro-5-isopropoxybiphenyl-4-yl)methyl)piperidin-4-yl)-2-ethyl-5-oxo-5,6,7,8-tetrahydro-1,6-naphthyridine-3-carboxylic acid] |  |
| 86 | CCc1nc2c(cc1C(=O)O)C(=O)N(C1CCN(Cc3cc(C4CC4)c(-c4ccc(F)cc4F)cc3OC(C)C)CC1)CC2 [Example 46, 6-(1-((2-Cyclopropyl-2′,4′-difluoro-5-isopropoxybiphenyl-4-yl)methyl)piperidin-4-yl)-2-ethyl-5-oxo-5,6,7,8-tetrahydro-1,6-naphthyridine-3-carboxylic acid] |  |
| 86 | CCOc1cc(-c2ccc(F)cc2)c(C2CC2)cc1CN1CCC(N2CCc3nc(CC)c(C(=O)O)cc3C2=O)CC1 [Example 2, 6-(1-((2-Cyclopropyl-5-ethoxy-4′-fluorobiphenyl-4-yl)methyl)piperidin-4-yl)-2-ethyl-5-oxo-5,6,7,8-tetrahydro-1,6-naphthyridine-3-carboxylic acid] |  |
| 106 | CCOc1cc(-c2ccc(F)cc2)c(C2CC2)cc1CN1CCC(N2CCc3nc(COC)c(C(=O)O)cc3C2=O)CC1 [Example 47, 6-(1-((2-Cyclopropyl-5-ethoxy-4′-fluorobiphenyl-4-yl)methyl)piperidin-4-yl)-2-(methoxymethyl)-5-oxo-5,6,7,8-tetrahydro-1,6-naphthyridine-3-carboxylic acid] |  |
| 64 | CCc1nc2c(cc1C(=O)O)C(=O)N(C1CCN(Cc3cc(C4CC4)c(-c4ccc(F)cc4F)c(Cl)c3OC)CC1)CC2 [Example 66, 6-(1-((2-Chloro-6-cyclopropyl-2′,4′-difluoro-3-methoxybiphenyl-4-yl)methyl)piperidin-4-yl)-2-ethyl-5-oxo-5,6,7,8-tetrahydro-1,6-naphthyridine-3-carboxylic acid] |  |
| 99 | CCOc1cc(-c2ccc(F)cc2F)c(C2CC2)cc1CN1CCC(N2CCc3nc(COC)c(C(=O)O)cc3C2=O)CC1 [Example 48, 6-(1-((2-Cyclopropyl-5-ethoxy-2′,4′-difluorobiphenyl-4-yl)methyl)piperidin-4-yl)-2-(methoxymethyl)-5-oxo-5,6,7,8-tetrahydro-1,6-naphthyridine-3-carboxylic acid] |  |
